Measured values as given in patent US11359011B2, “Treatment and prevention of cardiovascular disease” (Edifice Health, Inc., priority 2019, dated 2022).

B1: MIG: recombinant mouse MIG (R&D systems, catalog number 492-MM); monokine induced by gamma interferon, CXC chemokine (protein, UniProt P18340 22-126, looked up)
C-X-C motif chemokine 9: TLVIRNARCSCISTSRGTIHYKSLKDLKQFAPSPNCNKTEIIATLKNGDQTCLDPDSANVKKLMKEWEKKISQKKKQKRGKKHQKNMKNRKPKTPQSRRRSRKTT

Columns and labels:
estrogen levels = conditions: while raising testosterone levels; cited from earlier work
Mouse thoracic aortas = assay: Acetylcholine relaxation of mouse thoracic aortic rings on an isometric wire myograph after exposure to MIG; conditions: mouse thoracic aortic sections incubated with different concentrations of recombinant mouse MIG, pre-contracted with U46619; FIG. 6
Experimental: Mouse thoracic aortas were carefully dissected, and vessels were cut into small rings and mounted on an isometric wire myograph chambers (Danish Myo Technology) and subjected to a normalization protocol. Following normalization, the vessels were incubated with either PBS or different concentrations of recombinant mouse MIG (R&D systems, catalog number 492-MM). A concentration-dependent contraction curve was created by accumulative application of the prostaglandin agonist U46619. Subsequently, concentration-dependent relaxation curves of Acetylcholine were conducted on these vessels and percent relaxation calculated for each dose.

Row | Molecule | reduction of estrogen levels (estrogen levels) | effect on vasorelaxation (percent relaxation to Acetylcholine) (Mouse thoracic aortas)
1 | N#Cc1ccc(C(c2ccc(C#N)cc2)n2cncn2)cc1 [Letrozole] | 98% | 
2 | B1 |  | impaired vascular reactivity with increasing concentrations of MIG
